Experiments:
bFGF-stimulated HUVECs = assay: bFGF-induced proliferation of human endothelial cells (HUVEC proliferation assay); format: cell-based; conditions: 20 ng/ml bFGF, 48 hours, read-out: IC50 of Antiproliferative Effect
From the text: Proliferation assays familiar to those skilled in the art using human umbilical vein endothelial cells (HUVECs) were employed in order to determine the effect of various antibiotics on the growth of bFGF-stimulated HUVECs.
The materials for this experiments included endothelial cells (HUVECS) and media for their proliferation (Media 200, fetal bovine serum (FBS), gelatin, bFGF) (Paragon Bioservices, Baltimore, Md.), and Cell Titer 96 for detection of cell proliferation (Paragon Bioservices, Baltimore, Md.). Antibiotics aurovertin B, citreoviridin, oligomycin A, oligomycin B, oligomycin C, and efrapeptin D were all obtained from Sigma Chemical Company (St. Louis, Mo.).
HUVECs were routinely cultured to confluency in Media 200 containing 10% FBS. The cells were then trypsinized and plated in a 96-well plate pre-coated with 1% gelatin at 5000 cells per well per 100 μL Media 200 containing 2% FBS. The cells were allowed to adhere for 24 hours. Subsequently, the media were aspirated and fresh Media 200 containing 0.5% FBS were added to the wells. Addition of various concentrations of antibiotics in the presence and absence of 20 ng/ml bFGF followed. The assay plates were incubated at 37° C., 5% CO2 for 48 hours. At the end of the incubation period, cell proliferation was determined using cell counting (Cell Counter Model Z1, Coulter Incorporation, Miami, Fla.) or spectrophotometry. In the later case, the assay plates were incubated with Cell Titer 96 for 2 hours and the absorbance was recorded at 490 nm.

VEGF-stimulated HUVECs = assay: VEGF-induced migration of human endothelial cells (modified Boyden chamber); format: cell-based; conditions: 5 ng/ml VEGF, six hours
From the text: A migration assay familiar to those skilled in the art using vascular endothelial growth factor (VEGF)-stimulated HUVECs was employed to determine the effect of aurovertin B on endothelial cell migration.
The endothelial cells were routinely cultured as previously described.
Modified Boyden chambers in a 48-well format consisting of upper and lower wells separated by an 8-microns pore polycarbonate filter coated with collagen were used to study VEGF-induced migration of HUVECs (Paragon Bioservices, Baltimore, Md.). The endothelial cells were added to the lower wells and the migrating factor (5 ng/ml VEGF) was added to the upper wells. HUVECs were allowed to migrate from the lower to the upper wells for six hours at 37° C., 5% CO2. At the end of the incubation period, the filters were removed and washed gently. The cells on the filters were then fixed, stained with hematoxylin, and counted with a light microscope. The values obtained represent the mean of ten fields.

[1] = tested on: murine B16F10 melanoma tumors; assay: Growth of murine B16F10 melanoma tumors in C57 mice; format: in vivo; conditions: 2 mg/kg i.p. every day for 9 days
Procedure: The effect of aurovertin B and efrapeptin D on the growth of murine B16F10 melanoma tumors (ATCC, Rockville, Md.) was investigated. Groups of four C57 mice (The Jackson Laboratory, BarHarbor, Me.) were injected subcutaneously with 5×10^4 B16F10 cells (The Jackson Laboratory, BarHarbor, Me.). The mice were subsequently treated i.p. with 2 mg/kg aurovertin B, 0.4 mg/kg efrapeptin D, or vehicle control. The treatment was initiated three days after the tumor inoculation and continued every day for 9 days. The tumor growth was recorded at the end of the experiment.

Row | Structure (SMILES) | IC50 (bFGF-stimulated HUVECs) [µM] | inhibition of VEGF-induced migration of HUVECs (in words) (VEGF-stimulated HUVECs) | mice that exhibited measurable, growing tumors at the end of the treatment [1] [%] | Number of mice that developed measurable tumors/Number of mice injected with tumor cells ([1]; started three days after tumor inoculation)
1 | CC[C@H]1O[C@]2(C)[C@H](OC(C)=O)[C@@]1(C)O[C@@H](/C=C/C=C/C=C/c1oc(=O)cc(OC)c1C)[C@@H]2O [Aurovertin, aurovertin B] | 10 | inhibited VEGF-induced migration of HUVECs | 50 | 2/4
2 | COc1cc(=O)oc(/C=C/C=C/C=C/C(C)=C/[C@@]2(C)O[C@H](C)[C@](C)(O)[C@H]2O)c1C [Citreoviridin, citreoviridin] | 10 | – | – | –
3 | CC[C@@H]1/C=C/C=C/C[C@H](C)[C@H](O)[C@](C)(O)C(=O)[C@H](C)[C@@H](O)[C@H](C)C(=O)[C@H](C)[C@@H](O)[C@H](C)/C=C/C(=O)O[C@H]2[C@@H](C)[C@@H](CC1)O[C@@]1(CC[C@@H](C)[C@@H](C[C@H](C)O)O1)[C@@H]2C [Oligomycin A, oligomycin A] | 5 | – | – | –
4 | CC[C@H]1/C=C/C=C/C[C@@H](C)[C@H](O)[C@@](C)(O)C(=O)[C@@H](C)[C@H](O)[C@@H](C)C(=O)[C@@H](C)[C@H](O)[C@@H](C)/C=C/C(=O)O[C@@H]2[C@H](C)[C@H](CC1)O[C@@]1(O[C@@H](C[C@@H](C)O)[C@@H](C)CC1=O)[C@H]2C [Oligomycin B, oligomycin B] | 5 | – | – | –
5 | CC[C@@H]1C=CC=CC[C@H](C)[C@@H](O)[C@@H](C)C(=O)[C@H](C)[C@@H](O)[C@H](C)C(=O)[C@H](C)[C@@H](O)[C@H](C)C=CC(=O)O[C@H]2[C@@H](C)[C@@H](CC1)O[C@@]1(CC[C@@H](C)[C@@H](C[C@H](C)O)O1)[C@@H]2C [Oligomycin C, oligomycin C] | 5 | – | – | –
